Assays:
Settings in all cases: exposure time: 72 h
E21 [1] = patient-derived glioblastoma stem cells of mesenchymal subtype; experiment: surviving fraction (nuclei count normalised to DMSO); higher = more cells surviving (less toxic)
E57 [2] = patient-derived glioblastoma stem cells of mesenchymal subtype; experiment: as above
E13 [3] = patient-derived glioblastoma stem cells of classical subtype; experiment: as above
E31 [4] = patient-derived glioblastoma stem cells of proneural subtype; experiment: as above
E34 [5] = patient-derived glioblastoma stem cells of proneural subtype; experiment: as above
FT3469 [6] = normal neural stem cell line; experiment: as above
E28 [7] = patient-derived glioblastoma stem cells of classical subtype; experiment: as above
E21 [8] = experiment: phenotypic distance (Euclidean, principal components) from DMSO controls (arbitrary units); higher = stronger morphological change
E57 [9] = experiment: as above
E13 [10] = experiment: as above
E31 [11] = experiment: as above
E34 [12] = experiment: as above
FT3469 [13] = experiment: as above
E28 [14] = experiment: as above
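For phenotypic distance (Euclidean, principal components) from DMSO controls in this document: cell Painting imaging in 384-well plates, CellProfiler features reduced to at least 20 principal components, Euclidean distance versus same-plate DMSO vehicle wells (0.1% v/v), median over six images per well.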
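For surviving fraction (nuclei count normalised to DMSO) in this document: nuclei counted by high-content imaging of Hoechst-stained cells in laminin-coated 384-well plates, relative to 0.1% DMSO vehicle wells, with staurosporine as cell-death control.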

O=C(Nc1ccc([N+](=O)[O-])cc1Cl)c1cc(Cl)ccc1O [Niclosamide]
surviving fraction (E21 [1]; 4.1 nM): 0.602
surviving fraction (E21 [1]; 12.3 nM): 0.363
surviving fraction (E21 [1]; 37 nM): 0.0551
surviving fraction (E21 [1]; 111.1 nM): 0.0103
surviving fraction (E21 [1]; 333.3 nM): 0.0028
surviving fraction (E21 [1]; 1000 nM): 0.00933
surviving fraction (E21 [1]; 3000 nM): 0.00467
surviving fraction (E57 [2]; 4.1 nM): 0.572
surviving fraction (E57 [2]; 12.3 nM): 0.303
surviving fraction (E57 [2]; 37 nM): 0.2
surviving fraction (E57 [2]; 111.1 nM): 0.176
surviving fraction (E57 [2]; 333.3 nM): 0.166
surviving fraction (E57 [2]; 1000 nM): 0.136
surviving fraction (E57 [2]; 3000 nM): 0.149
surviving fraction (E13 [3]; 4.1 nM): 0.397
surviving fraction (E13 [3]; 12.3 nM): 0.192
surviving fraction (E13 [3]; 37 nM): 0.156
surviving fraction (E13 [3]; 111.1 nM): 0.163
surviving fraction (E13 [3]; 333.3 nM): 0.148
surviving fraction (E13 [3]; 1000 nM): 0.132
surviving fraction (E13 [3]; 3000 nM): 0.117
surviving fraction (E31 [4]; 4.1 nM): 0.927
surviving fraction (E31 [4]; 12.3 nM): 0.495
surviving fraction (E31 [4]; 37 nM): 0.132
surviving fraction (E31 [4]; 111.1 nM): 0.072
surviving fraction (E31 [4]; 333.3 nM): 0.0854
surviving fraction (E31 [4]; 1000 nM): 0.0502
surviving fraction (E31 [4]; 3000 nM): 0.0703
surviving fraction (E34 [5]; 4.1 nM): 0.708
surviving fraction (E34 [5]; 12.3 nM): 0.542
surviving fraction (E34 [5]; 37 nM): 0.562
surviving fraction (E34 [5]; 111.1 nM): 0.417
surviving fraction (E34 [5]; 333.3 nM): 0.406
surviving fraction (E34 [5]; 1000 nM): 0.452
surviving fraction (E34 [5]; 3000 nM): 0.331
surviving fraction (FT3469 [6]; 4.1 nM): 0.772
surviving fraction (FT3469 [6]; 12.3 nM): 0.654
surviving fraction (FT3469 [6]; 37 nM): 0.297
surviving fraction (FT3469 [6]; 111.1 nM): 0.244
surviving fraction (FT3469 [6]; 333.3 nM): 0.227
surviving fraction (FT3469 [6]; 1000 nM): 0.262
surviving fraction (FT3469 [6]; 3000 nM): 0.28
surviving fraction (E28 [7]; 4.1 nM): 0.616
surviving fraction (E28 [7]; 12.3 nM): 0.446
surviving fraction (E28 [7]; 37 nM): 0.147
surviving fraction (E28 [7]; 111.1 nM): 0.0916
surviving fraction (E28 [7]; 333.3 nM): 0.0952
surviving fraction (E28 [7]; 1000 nM): 0.0557
surviving fraction (E28 [7]; 3000 nM): 0.0898
phenotypic distance (E21 [8]; 4.1 nM): 4.72
phenotypic distance (E21 [8]; 12.3 nM): 6.44
phenotypic distance (E21 [8]; 37 nM): 6.49
phenotypic distance (E21 [8]; 111.1 nM): 11.8
phenotypic distance (E21 [8]; 333.3 nM): 11.9
phenotypic distance (E21 [8]; 1000 nM): 12.4
phenotypic distance (E21 [8]; 3000 nM): 14
phenotypic distance (E57 [9]; 4.1 nM): 4.23
phenotypic distance (E57 [9]; 12.3 nM): 7.26
phenotypic distance (E57 [9]; 37 nM): 6.17
phenotypic distance (E57 [9]; 111.1 nM): 4.83
phenotypic distance (E57 [9]; 333.3 nM): 6.2
phenotypic distance (E57 [9]; 1000 nM): 6.94
phenotypic distance (E57 [9]; 3000 nM): 6.28
phenotypic distance (E13 [10]; 4.1 nM): 4.25
phenotypic distance (E13 [10]; 12.3 nM): 4.77
phenotypic distance (E13 [10]; 37 nM): 6.86
phenotypic distance (E13 [10]; 111.1 nM): 9.47
phenotypic distance (E13 [10]; 333.3 nM): 8.21
phenotypic distance (E13 [10]; 1000 nM): 8.6
phenotypic distance (E13 [10]; 3000 nM): 8.06
phenotypic distance (E31 [11]; 4.1 nM): 3.09
phenotypic distance (E31 [11]; 12.3 nM): 4.78
phenotypic distance (E31 [11]; 37 nM): 5.57
phenotypic distance (E31 [11]; 111.1 nM): 10.1
phenotypic distance (E31 [11]; 333.3 nM): 8.82
phenotypic distance (E31 [11]; 1000 nM): 9.48
phenotypic distance (E31 [11]; 3000 nM): 7.83
phenotypic distance (E34 [12]; 4.1 nM): 1.82
phenotypic distance (E34 [12]; 12.3 nM): 2.56
phenotypic distance (E34 [12]; 37 nM): 5.44
phenotypic distance (E34 [12]; 111.1 nM): 8.06
phenotypic distance (E34 [12]; 333.3 nM): 7.5
phenotypic distance (E34 [12]; 1000 nM): 7.96
phenotypic distance (E34 [12]; 3000 nM): 7.89
phenotypic distance (FT3469 [13]; 4.1 nM): 2.28
phenotypic distance (FT3469 [13]; 12.3 nM): 3.48
phenotypic distance (FT3469 [13]; 37 nM): 7.75
phenotypic distance (FT3469 [13]; 111.1 nM): 7.91
phenotypic distance (FT3469 [13]; 333.3 nM): 9.29
phenotypic distance (FT3469 [13]; 1000 nM): 9.03
phenotypic distance (FT3469 [13]; 3000 nM): 10.3
phenotypic distance (E28 [14]; 4.1 nM): 1.99
phenotypic distance (E28 [14]; 12.3 nM): 2.43
phenotypic distance (E28 [14]; 37 nM): 6.04
phenotypic distance (E28 [14]; 111.1 nM): 8.95
phenotypic distance (E28 [14]; 333.3 nM): 7.22
phenotypic distance (E28 [14]; 1000 nM): 8.51
phenotypic distance (E28 [14]; 3000 nM): 7.9

— the supplement of paper PMC13207355
